Source: PubChem BioAssay (NCI)
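Values below derive from 48-hour exposures of cells grown in 96-well plates, with endpoints linearly interpolated between the two concentrations bracketing the appropriate inhibition level. GI50: concentration for 50% inhibition of growth. TGI denotes the concentration required for complete inhibition of growth.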

How the values were obtained:
Assay in all cases: growth of human tumour cells (NCI), 48 h
RPMI-8226 leukemia = test system: RPMI-8226 leukemia
SK-OV-3 ovarian = test system: SK-OV-3 ovarian
SW-620 colon = test system: SW-620 colon
A549 NSCLC = test system: A549 NSCLC
SK-MEL-28 melanoma = test system: SK-MEL-28 melanoma
SNB-75 CNS = test system: SNB-75 CNS
TK-10 renal = test system: TK-10 renal
CAKI-1 renal = test system: CAKI-1 renal
CCRF-CEM leukemia = test system: CCRF-CEM leukemia
786-0 renal = test system: 786-0 renal

SMILES | GI50 (RPMI-8226 leukemia) [µM] | TGI (RPMI-8226 leukemia) [µM] | GI50 (SK-OV-3 ovarian) [µM] | TGI (SK-OV-3 ovarian) [µM] | GI50 (SW-620 colon) [µM] | TGI (SW-620 colon) [µM] | GI50 (A549 NSCLC) [µM] | TGI (A549 NSCLC) [µM] | GI50 (SK-MEL-28 melanoma) [µM] | TGI (SK-MEL-28 melanoma) [µM] | GI50 (SNB-75 CNS) [µM] | TGI (SNB-75 CNS) [µM] | GI50 (TK-10 renal) [µM] | TGI (TK-10 renal) [µM] | GI50 (CAKI-1 renal) [µM] | TGI (CAKI-1 renal) [µM] | GI50 (CCRF-CEM leukemia) [µM] | TGI (CCRF-CEM leukemia) [µM] | GI50 (786-0 renal) [µM] | TGI (786-0 renal) [µM]
O=C(O)CCCCC(CCSCc1ccccc1)SCc1ccccc1 (stereo not drawn) | 30.6 | 96.7 | > 88.7 | > 100 | > 70 | > 100 | 43.5 | > 100 | 45.1 | > 100 | > 100 | > 100 | > 73.4 | > 100 | > 77.5 | > 100 | 37 | > 100 | 64.2 | > 100
COC(=O)CCCCN=Cc1c(O)c(O)c(C(C)C)c2cc(C)c(-c3c(C)cc4c(C(C)C)c(O)c(O)c(C=NCCCCC(=O)OC)c4c3O)c(O)c12 | 0.616 | 20.3 | 0.976 | 3.08 | 1.27 | > 32.5 | 0.979 | > 32.5 | 1.77 | > 32.5 | 2.6 | > 32.5 | 1.05 | > 32.5 | 1.17 | > 32.5 | 0.746 | 17.5 | 1.34 | 15.1
CN(C(=O)C12C3C4C1C1C2C3C41C(=O)C(C)(C)C)C(C)(C)C (stereo not drawn) | – | > 100 | – | > 100 | – | > 100 | – | > 100 | – | > 100 | – | > 100 | – | > 100 | – | > 100 | – | > 100 | – | > 100
O=NN(Cc1ccc(Cl)cc1)C(C(=O)O)c1ccccc1 (stereo not drawn) | – | > 100 | – | > 100 | – | > 100 | – | > 100 | – | > 100 | – | > 100 | – | > 100 | – | > 100 | – | > 100 | – | > 100
Cc1cc(I)cc(CNCCCN2CCSCC2)c1O | 12.4 | 30.8 | 17.9 | 36.4 | 16.5 | 30.3 | 18.7 | 39.2 | 17 | 32.4 | 13.7 | 28.8 | 14.2 | 29.3 | 15.1 | 32.7 | 10.4 | 39.9 | 13 | 25.8
CCc1c(Oc2ccc(C(C)=O)cc2)c2ccccc2[nH]c1=O | 3.65 | > 42.5 | 21 | 74.5 | 22.2 | 67.4 | 18.5 | 59.5 | 50.7 | > 100 | > 26.9 | > 100 | 7.03 | 28.6 | 15.8 | 53.3 | – | > 43.6 | 21.7 | > 72.1
CCOc1ccc2c(c1)[n+]([O-])c(S(=O)(=O)c1ccc(C)cc1)c(N)[n+]2[O-] | – | > 100 | – | > 100 | – | > 100 | – | > 100 | – | > 100 | – | > 100 | – | > 100 | – | > 100 | – | > 100 | – | > 100
COc1cccc(/C=N/NC(=O)c2ccccc2Nc2ccnc(C(F)(F)F)c2)c1O | 0.156 | 0.983 | 0.583 | 31 | 0.918 | > 70.1 | 0.87 | > 34.1 | 1.48 | > 34.7 | 1.62 | > 76.5 | 0.392 | > 92.6 | 0.257 | 9.72 | 0.115 | 2.02 | 0.552 | > 37.5
CCCCC/C(C=C(C#N)C#N)=C/c1ccccc1 | 1.92 | 5.78 | 7.87 | 23.5 | 3.12 | 10.9 | 8.95 | > 43.6 | 2.86 | 8.57 | 12.4 | 27.7 | 6.54 | 42.9 | 1.3 | 21.3 | 2.51 | 6.96 | 7.45 | 21.6
O=C1c2c(c3c4ccccc4n(CCCCCCBr)c3c3[nH]c4ccccc4c23)C(=O)N1O | 1.92 | 5.57 | 2.87 | 10.4 | 3.56 | 14.3 | 3.31 | 12.1 | 2.95 | 15.7 | 3.14 | 16.5 | 3.13 | 11.7 | 2.86 | 9.5 | 2.14 | 5.53 | 2.09 | 5.81
CCOc1cccc(/C=N/NC(=O)c2ccccc2Nc2ccnc(C(F)(F)F)c2)c1O | 0.332 | – | 0.676 | 40.5 | 1.23 | > 100 | 1.64 | > 100 | 1.37 | 98.3 | 2.09 | > 77.9 | 0.567 | > 100 | 0.222 | 10.5 | 0.136 | > 31.4 | 1.32 | 24
O=C(c1ccco1)c1nc2ccc(C(F)(F)F)cc2[n+]([O-])c1C(F)(F)F | 20.3 | 93 | 33.4 | > 100 | > 100 | > 100 | 33.7 | > 100 | 23.5 | > 100 | 10.6 | 37.8 | 28.8 | > 100 | 31 | > 100 | > 100 | > 100 | > 100 | > 100
COC(=O)c1cc2c3ccccc3[nH]c2c2ncccc12 | 56.3 | > 100 | 43.3 | > 100 | 38.4 | > 100 | 75.1 | > 100 | 85.8 | > 100 | 17.3 | 65.3 | 12 | > 100 | 8.12 | > 100 | 32.4 | > 100 | 61.2 | > 100
N#C/C(=C/c1ccsc1)C(=O)c1ccccc1 | – | > 100 | – | > 100 | – | > 100 | – | > 100 | – | > 100 | – | > 100 | – | > 100 | – | > 100 | – | > 100 | – | > 100
